Source: patent publication US9676761B2, “Difluoroethyl-oxazole substituted bridged spiro[2.4]heptane derivatives as ALX receptor agonists” (ACTELION PHARMACEUTICALS LTD, priority 2013, dated 2017)

Key:
human ALX receptor = target: T1, human ALX receptor (Homo sapiens, UniProt P25090); experiment: FLIPR assay (ALX receptor), intracellular calcium measurements in HEK293-hALXR-Gα16 cells; assay type: cell-based; conditions: median of n replications, normalized to WKYMVm 10 nM, read-out: EC50 (agonistic activity with respect to the ALX receptor)
T1 construct: expressed in transfected cells; host or cells: HEK293 (HEK293-hALXR-Gα16)
T1 sequence (P25090 1-351): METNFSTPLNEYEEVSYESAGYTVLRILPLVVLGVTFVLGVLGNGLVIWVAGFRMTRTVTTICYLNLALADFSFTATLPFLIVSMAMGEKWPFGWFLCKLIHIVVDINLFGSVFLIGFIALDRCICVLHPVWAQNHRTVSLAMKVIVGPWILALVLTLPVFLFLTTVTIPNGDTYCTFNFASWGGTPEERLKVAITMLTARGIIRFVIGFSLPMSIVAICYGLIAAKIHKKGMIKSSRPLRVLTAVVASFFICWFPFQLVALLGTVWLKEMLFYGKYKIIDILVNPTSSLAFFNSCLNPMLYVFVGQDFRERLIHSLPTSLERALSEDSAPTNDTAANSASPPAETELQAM
Protocol: FLIPR Assay (ALX Receptor)
(§1) Intracellular Calcium Measurements:
(§2) Cells expressing recombinant human ALX receptor and the G-protein Gα16 (HEK293-hALXR-Gα16) were grown to 80% confluency in Growing Medium (GM). Cells were detached from culture dishes with a cell dissociation buffer (Invitrogen, 13151-014), and collected by centrifugation at 1,000 rpm at rt for 5 min in Assay Buffer (AB) (equal parts of Hank's BSS (Gibco, 14065-049) and DMEM without Phenol Red (Gibco, 11880-028)). After 60 min incubation at 37° C. under 5% CO2 in AB supplemented with 1 μM Fluo-4 (AM) (Invitrogen, F14202) and 20 mM HEPES (Gibco, 15630-056), the cells were washed and resuspended in AB. They were then seeded onto 384-well FLIPR assay plates (Greiner, 781091) at 50,000 cells in 70 μl per well and sedimented by centrifugation at 1,000 rpm for 1 min. Stock solutions of test compounds were made up at a concentration of 10 mM in DMSO, and serially diluted in AB to concentrations required for activation dose response curves. WKYMVm (Phoenix Peptides) was used as a reference agonist. […] Changes in fluorescence were monitored before and after the addition of test compounds at lex=488 nm and lem=540 nm. […]

[1] = Plasma stability assay (stability in serum), rat; assay type: in vitro ADME; conditions: pH 7.4, 37° C., 1 μM compound; for remaining concentration at Tlast: Tlast 6 h
Protocol: (§3) Rat or human serum adjusted at pH 7.4 with lactic acid or ammonium hydroxide, were equilibrated at 37° C. under orbital shaking in an incubator containing 5% CO2. The reaction was initiated by the addition of 1 μM of compounds (1 μl of 1 mM stock solution in DMSO in 999 μl of plasma). At 0.01 h, 0.25 h, 0.5 h, 1 h, 2 h, 4 h and 6 h aliquots (30 μl) were transferred in a 96 well plate containing 90 μl MeOH placed on ice to stop the reaction. After vortexing for 20 min at 1400 rpm on an Eppendorf thermomixer, the plates were centrifuged at 3220 g for 20 min at 4° C. and the supernatants were analyzed with LC-MS/MS. Calibration samples in serum containing 0.1% of dichlorvos (2,2-dichlorovinyl-dimethyl-phosphate) were prepared and analysed in parallel to the incubation samples to allow the quantification. Half lives (T1/2) in hours were then calculated. In addition the remaining concentration of the respective compound after time Tlast relative to the concentration at the beginning has been determined (table 3).

[2] = Plasma protein binding assay (Rapid Equilibrium Dialysis), rat; assay type: in vitro ADME; conditions: 1 μM, dialysis 4 h at 37° C., pH 7.4
human FPR1 receptor = target: T2, human FPR1 receptor (Homo sapiens, UniProt P21462); experiment: FLIPR assay (FPR1 receptor), intracellular calcium measurements in HEK293-hFPR1-Gα16 cells; assay type: cell-based; conditions: median of n replications, normalized to WKYMVm 10 nM, read-out: EC50 (agonistic activity with respect to the FPR1 receptor)
T2 construct: expressed in transfected cells; host or cells: HEK293 (HEK293-hFPR1-Gα16)
T2 sequence (P21462 1-350): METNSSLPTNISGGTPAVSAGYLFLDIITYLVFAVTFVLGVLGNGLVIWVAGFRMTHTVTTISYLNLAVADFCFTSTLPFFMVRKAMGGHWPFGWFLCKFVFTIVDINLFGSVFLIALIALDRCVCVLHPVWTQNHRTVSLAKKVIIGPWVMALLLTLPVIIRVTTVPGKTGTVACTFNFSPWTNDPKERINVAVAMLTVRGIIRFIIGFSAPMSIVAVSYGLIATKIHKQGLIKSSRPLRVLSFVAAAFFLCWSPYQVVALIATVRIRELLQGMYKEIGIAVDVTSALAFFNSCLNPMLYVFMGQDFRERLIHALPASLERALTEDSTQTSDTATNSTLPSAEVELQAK
Protocol: FLIPR Assay (FPR1 Receptor)
as §1
as §2, with “FPR1” for “ALX”, “(HEK293-hFPR1-Gα16)” for “(HEK293-hALXR-Gα16)”

[3] = Plasma stability assay (stability in serum), human; assay type: in vitro ADME; conditions: pH 7.4, 37° C., 1 μM compound; for remaining concentration at Tlast: Tlast 6 h
Protocol: as §3

[4] = Plasma protein binding assay (Rapid Equilibrium Dialysis), human; assay type: in vitro ADME; conditions: 1 μM, dialysis 4 h at 37° C., pH 7.4
Protocol: Plasma Protein Binding Assay
Compounds were added to human plasma adjusted at pH 7.4 with lactic acid or ammonium hydroxide (final concentration 1 μM) and dialyzed with RED (Rapid Equilibrium Dialysis) devices against Phosphate Buffered Saline (0.1M sodium Phosphate and 0.15 M sodium chloride) 0.1 M pH 7.4 for 4 h at 37° C. in an incubator containing 5% CO2. Following dialysis, an aliquot of plasma and buffer were diluted with an equal volume of the opposite matrix to nullify the matrix effect and a calibration was prepared in the mixed matrix. Aliquots of samples and calibrations (30 μl) were transferred in a 96 well plate containing 90 μl MeOH to precipitate the proteins. After vortexing for 20 min at 1400 rpm on an Eppendorf thermomixer, the plates were centrifuged at 3220 g for 20 min at 4° C. and the supernatants were analyzed with LC-MS/MS. Concentrations of analyte were used for the calculation of the fraction bound to plasma. Propranolol [(±)-1-isopropylamino-3-(1-naphthyloxy)-2-propanol], a reference compound, was run in parallel.

Substance	EC50 (human ALX receptor) [nM]	remaining concentration at Tlast [1] [%]	T1/2 [1] [h]	Plasma protein binding [2] [%]	EC50 (human FPR1 receptor) [nM]	remaining concentration at Tlast [3] [%]	T1/2 [3] [h]	Plasma protein binding [4] [%]
(1S,2R,3R,4R)—N^2—((4-(1,1-Difluoroethyl)oxazol-2-yl)methyl)-N^3-(trans-3-fluoropiperidin-4-yl)spiro[bicyclo[2.2.1]heptane-7,1′-cyclopropane]-2,3-dicarboxamide [Example 2]	3.6	>100	>6	47.7	> 7000	>100	>6	63.8
(1S,2R,3R,4R)—N^2—((4-(1,1-Difluoroethyl)oxazol-2-yl)methyl)-N^3-(trans-3-fluoropiperidin-4-yl)spiro[bicyclo[2.2.1]heptane-7,1′-cyclopropane]-2,3-dicarboxamide [Example 1]	6.6	>100	>6	50.7	> 6000	97	>6	54.8
